We go through 2 compounds from PMC8037406, “Symbiotic NCR Peptide Fragments Affect the Viability, Morphology and Biofilm Formation of Candida Species” (International Journal of Molecular Sciences, 2021).

Read-outs that look alike come from different tables or passages of the source. Where a SMILES comes first, the peptide text is derived from it.

For one test, the system named is C. albicans ATCC 10231. In words: Yeast-hypha morphology, bright-field microscopy. The class given is cell-based, Candida albicans. As to conditions: 3.12 µM peptide, 48 h, 1/8AIM medium, sub-lethal concentration. The text has this: (§1) As hyphae formation is an important virulence factor, we investigated how the broad range activity peptides, NCR335C17–33, NCR169C17–38 and NCR169C17–38ox affect the morphological switch of C. albicans ATCC 10231 and C. tropicalis between the hyphal and yeast growth forms at sub-lethal concentrations (Figure 1). […] However, not only the morphology changed, but the cell number also declined, particularly in the latter case.
(§2) To induce morphological change of C. albicans and C. tropicalis YNB medium was changed for eight-fold diluted AIM-V+AlbuMAX (BSA) medium (Gibco, Thermo Fisher Scientific, Dublin, Ireland) referred to as 1/8AIM in the text.
(§3) Bright-field microscopy. The morphology of C. albicans ATCC 10231 and C. tropicalis cells was examined after 48 h incubation with the selected peptides (NCR335C17–33 and NCR169C17–38) by Zeiss Axio Observer inverted microscope (Carl Zeiss AG, Jena, Germany). The concentration of the NCR335C17–33 was 1.56 and 3.12 µM, NCR169C17–38 1.56 or 3.12 µM while NCR169C17–38ox 0.78 or 3.12 µM, the initial cell concentration was set to 4 × 10^4 cell/mL. Cells cultivated without peptides were used as control.

Test [1] relates to C. tropicalis CBS 94 biofilm. In words: Biofilm formation assay, XTT. Type of test: cell-based, Candida tropicalis. The conditions noted are these: 72 h, 37 °C, 5 % CO2, 1/8AIM medium, p ≤ 0.0001.
The subject of test [2] is C. albicans ATCC 10231 biofilm. As to the kind of experiment: Morphology of biofilm-located cells, scanning electron microscopy. As to conditions: SEM, 72 h, 37 °C, sub-lethal concentrations. The class given is cell-based, Candida albicans.
For the next test, the system named is Candida auris 0381. In words: microbe, parasite or virus in culture. Type of test: cell-based. As to conditions: micro-dilution, YNB medium, 4 × 10^4 cell/mL, 48 h, 30 °C, OD 620 nm; MIC = growth inhibition ≥90%; peptides 25 to 1.56 µM, fluconazole 200 to 0.78 µM; three biological repeats in triplicates. The procedure:
(§4) The antifungal activity of all the 14 peptides was tested against the following opportunistic human pathogen Candida species and strains: C. albicans strains ATCC 10231, SC 5314 and SZMC 1458, C. auris 0381, C. glabrata CBS 138, C. parapsilosis CBS 604 and C. tropicalis CBS 94.
(§5) All the Candida strains (Table 4) were grown overnight in YPD medium (1% pepton, 1% dextrose, 0.5% yeast extract) at 30 °C in water bath shaker prior to each experiments. The cells were harvested by centrifugation (5 min, 3000× g) washed twice with sterile distilled water and suspended in 5-fold diluted Difco Yeast Nitrogen Base w/o Amino Acids medium (Becton, Dickinson and Company, Sparks, MD, USA) supplemented with 1% dextrose, referred to as YNB medium in the text. Cells were counted in Bürker chamber and diluted to the proper concentration.
(§6) The growth inhibition of the peptides listed in Table 1 was tested in 96-well microtiter plates on Candida strains. The minimal inhibitory concentration (MIC) was determined with the micro-dilution method by adding 5 µL serially two-fold-diluted peptide solution to 95 µL of cell suspension (4 × 10^4 cell/mL) in YNB medium. After 48 h of incubation at 30 °C the optical density of the cultures was measured at 620 nm in SPECTROstar Nano plate reader (BMG LabTech, Offenburg, Germany). Minimal inhibitory concentration was defined as growth inhibition ≥90% compared to 100% growth of the untreated control. The experiments were carried out in three biological repeats always in triplicates.
In general terms: Dilution methods test growth across graded concentrations, often in twofold steps.

For test [3], the system named is C. albicans SC 5314 biofilm. As to the kind of experiment: Biofilm formation assay, XTT. As to conditions: 72 h, 37 °C, 5 % CO2, 1/8AIM medium, p ≤ 0.0001. The class given is cell-based, Candida albicans.
The subject of test [4] is C. albicans SZMC 1458 biofilm. In words: Biofilm formation assay, XTT. Type of test: cell-based, Candida albicans. The conditions noted are these: 72 h, 37 °C, 5 % CO2, 1/8AIM medium, p ≤ 0.0001.
Test [5] relates to C. tropicalis CBS 94 biofilm. As to the kind of experiment: Morphology of biofilm-located cells, scanning electron microscopy. The class given is cell-based, Candida tropicalis. The conditions noted are these: SEM, 72 h, 37 °C, 1.56 µM peptide.
The test system of test [6] is C. albicans ATCC 10231 biofilm. As to the kind of experiment: Biofilm formation assay, XTT. Type of test: cell-based, Candida albicans. As to conditions: 72 h, 37 °C, 5 % CO2, 1/8AIM medium, p ≤ 0.0001. In general terms: Tetrazolium assays rely on reduction of a dye to a coloured formazan, in cell work by metabolically active cells.
The next test has as its system C. auris. The conditions noted are these: for reduction of MIC in the synergistic combination: compared with single use. As to the method:
Amphotericin B, due to its high toxicity was not included in this assay.
The effects of the different combinations of fluconazole and NCR335C17–33, NCR169C17–38 or NCR169C17–38ox were determined by standard checkerboard titration method. The fluconazole was tested in a concentration range from 6.25 to 75 µM, NCR169C17–38 and NCR169C17–38ox from 0.78 to 12.50 µM, NCR335C17–33 from 1.56 to 25 µM. The initial cell concentration in each well was 4 × 10^4 cell/mL. After the incubation for 72 h at 30 °C, the optical density of the cultures was detected at 620 nm in SPECTROstar Nano plate reader (BMG LabTech, Offenburg, Germany). The inhibitory concentrations were determined for each compound alone and in combinations. The experiments were carried out at least three times. The effect of combinations was evaluated by fractional inhibitory concentration (FIC) index. FIC = FICA + FICB. FICA = (MICA in combination)/(MICA alone); FICB = (MICB in combination)/(MICB alone)

In the next test the test system is C. tropicalis CBS 94. As to the kind of experiment: Yeast-hypha morphology, bright-field microscopy. The class given is cell-based, Candida tropicalis. As to conditions: 1.56 µM peptide, 48 h, 1/8AIM medium.
Excerpt: as §1, §2, §3

The next test has as its system Candida cells. As to the kind of experiment: Fungicide effect, spotting of treated cells on solid YPD medium. The conditions noted are these: 1.56–25 µM, 24 h treatment, dilutions spotted on solid YPD medium, 48 h, 30 °C. The class given is cell-based, Candida species. As to the method: To determine whether the inhibitory effect of the peptides is generated by fungistatic or fungicide action, the Candida cells were treated with the peptides in the same concentration range (1.56–25 µM) as in the growth inhibition assay. After 24 h 5 µL sample from the untreated control cells and from the peptide treated cells was added to 95 µL water and diluted further 10- and 100-fold. From each dilution, 5 µL was placed on solid medium and the growth of the control and peptide treated cells was compared after 48 h incubation at 30 °C. This assay confirmed that all the effective peptides, NCR335N1–19, NCR335N7–21, NCR335C1–33, NCR335C13–33, NCR335C17–33, NCR169C17–38, NCR169C17–38ox, NCR169C17–38W10,20/A provoked growth inhibition through fungicidal actions (Figure A2). The fungicide concentrations, required for the complete elimination of the Candida cells, were either equal to or twice higher than the minimum inhibitory concentrations presented in Table 2.
The same initial experimental setting was used to determine the fungicide effect of the peptides. Five µL samples were taken from the cultures after 24 h and were added to 95 µL sterile distilled water, and diluted to 10- and 100-fold (indicated as 10^4, 10^3 and 10^2 based on the cell number of the control culture in Figure A2). Five µL from each dilution were placed on solid YPD medium and the growth of the strains was detected after 48 h incubation at 30 °C.

Test [7] has as its system Candida parapsilosis CBS 604. As to the kind of experiment: microbe, parasite or virus in culture. As to conditions: micro-dilution, YNB medium, 4 × 10^4 cell/mL, 48 h, 30 °C, OD 620 nm; MIC = growth inhibition ≥90%; peptides 25 to 1.56 µM, fluconazole 200 to 0.78 µM; three biological repeats in triplicates. The class given is cell-based. As to the method:
as §4, §5, §6

The mark [8] stands for this setting: NCR169C17–38 + NCR335C17–33, C. auris.
[9] abbreviates: NCR169C17–38 + NCR169C17–38ox, C. auris.
The mark [10] stands for this setting: checkerboard, C. auris, 72 h, 30 °C, drug A fluconazole + drug B NCR169C17–38.
For Minimal inhibitory concentration, Cau 0381 in this document: key: -: no growth inhibition was observed.
For Minimal inhibitory concentration, Cp CBS 604 in this document: key: -: no growth inhibition was observed.

`CC[C@H](C)[C@H](NC(=O)[C@@H]1CCCN1C(=O)[C@@H](NC(=O)[C@H](CS)NC(=O)[C@H](Cc1ccc(O)cc1)NC(=O)[C@H](CO)NC(=O)[C@H](CCCCN)NC(=O)[C@H](CCCNC(=N)N)NC(=O)[C@H](CS)NC(=O)[C@H](CCCNC(=N)N)NC(=O)[C@@H](NC(=O)[C@H](CC(N)=O)NC(=O)[C@H](C)NC(=O)[C@H](CCCNC(=N)N)NC(=O)[C@H](CCCNC(=N)N)NC(=O)[C@H](CC(C)C)NC(=O)[C@@H](N)CCCCN)C(C)C)C(C)C)C(N)=O` [NCR335C17–33] (H-KLRRANVRCRKSYCVPI-NH2; N-terminus assumed): the “effect on hyphal growth” value with C. albicans ATCC 10231 is listed as “completely inhibited the hyphal growth”. Besides, the “concentration significantly inhibiting biofilm formation, relative to MIC” value in test [1] was “MIC”; in test [3], “half MIC”; in test [4], “half MIC”; in [6], “half MIC”. Besides, the “morphology of cells in the biofilm” value is “reduced the abundance of the hyphal form” in test [2] and “practically only the yeast form was present” in [5]. Also, the “Minimal inhibitory concentration, Cau 0381” value with Candida auris 0381 is reported as “-”. In addition, the Action entry in the test with C. auris (setting [8]) was “Synergism”; in the test on C. auris (fluconazole + NCR335C17–33, C. auris) it was “Indifferent”. Moreover, the “concentration of drug B for the indicated action” value in the test on C. auris (checkerboard, C. auris, 72 h, 30 °C, drug A NCR169C17–38 + drug B NCR335C17–33) came to 3.12 µM. Moreover, the FICB in the test with C. auris (checkerboard, C. auris, 72 h, 30 °C, drug A NCR169C17–38 + drug B NCR335C17–33, * fictitious value, 25 µM used as MIC of NCR335C17–33) is recorded as not above 0.25. In addition, the “effect on hyphal/yeast growth form” value with C. tropicalis CBS 94 is on record as “shifted to the yeast form”. For the same compound, the “growth inhibition by fungistatic or fungicide action” value in the test on Candida cells was “fungicidal”.
With `CC[C@H](C)[C@H](NC(=O)[C@H](CCCCN)NC(=O)[C@H](Cc1ccccc1)NC(=O)[C@H](CC(C)C)NC(=O)[C@@H]1CCCN1C(=O)[C@H](CCCCN)NC(=O)[C@H](CCCCN)NC(=O)[C@H](CO)NC(=O)[C@@H](N)CCCCN)C(=O)N[C@@H](Cc1c[nH]c2ccccc12)C(=O)N[C@@H](CCCCN)C(=O)N[C@@H](CS)C(=O)N[C@H](C(=O)N[C@@H](CCC(=O)O)C(=O)N[C@@H](CC(N)=O)C(=O)N[C@H](C(=O)N[C@@H](CS)C(=O)N[C@H](C(=O)N[C@@H](CC(C)C)C(=O)N[C@@H](Cc1c[nH]c2ccccc12)C(=O)N[C@@H](Cc1ccc(O)cc1)C(=O)N[C@@H](CCCCN)C(N)=O)C(C)C)C(C)C)C(C)C` [NCR169C17–38] (H-KSKKPLFKIWKCVENVCVLWYK-NH2; N-terminus assumed), the “effect on hyphal growth” value in the test on C. albicans ATCC 10231 is given as “completely inhibited the hyphal growth”. The “concentration significantly inhibiting biofilm formation, relative to MIC” value is on record as “half MIC” in test [1], “one-fourth of the MIC” in [3], “MIC” in [4] and “half MIC” in test [6]. Moreover, the “morphology of cells in the biofilm” value is “reduced the abundance of the hyphal form” in test [2]; “the cell number was drastically reduced, and the yeast form was also dominant” in test [5]. In test [7], the “Minimal inhibitory concentration, Cp CBS 604” value was “-”. The Action entry in the test with C. auris (setting [9]) is “Synergism”; in the test on C. auris (setting [8]) it was “Synergism”; in the test with C. auris (fluconazole + NCR169C17–38, C. auris), “Additive”. The “reduction of MIC in the synergistic combination” value worked out at 2 × in the test on C. auris (setting [9]) and 4 × in the test on C. auris (NCR169C17–38 + NCR335C17–33 (3.12 μM), C. auris). The “concentration of drug A for the indicated action” value in the test on C. auris (checkerboard, C. auris, 72 h, 30 °C, drug A NCR169C17–38 + drug B NCR169C17–38ox) came to 3.12 µM. Besides, in the test on C. auris (setting [10]), the FICB is listed as 0.125. Further, the “concentration of drug B for the indicated action” value in the test with C. auris (setting [10]) is 0.78 µM. Also, the “effect on hyphal/yeast growth form” value in the test with C. tropicalis CBS 94 is “shifted to the yeast form”. Also, the “growth inhibition by fungistatic or fungicide action” value with Candida cells was “fungicidal”.
